Here are results for 2 compounds from ChEMBL document CHEMBL4270538, “Targeting prohibitin with small molecules to promote melanogenesis and apoptosis in melanoma cells” (Eur J Med Chem, 2018).

pIC50: −log10 of the molar value. Activity calls are given as the source filed them. No cut-off for these calls is given here.

Experiment [1] concerns the target Prohibitin-2 (Homo sapiens) (UniProt Q99623). Briefly: Induction of PHB2-mediated melanogenesis in human HBL cells assessed as pigmentation at 1 uM after 10 days relative to control. The experiment is classed as cell-based.
The target is the same in experiment [2]. Briefly: Induction of PHB2-mediated melanogenesis in human HBL cells assessed as pigmentation at 10 uM after 10 days relative to control. Format: cell-based.
Experiment [3] deals with T1, Prohibitin 1 (Homo sapiens) (UniProt P35232).
T1 sequence (whole entry): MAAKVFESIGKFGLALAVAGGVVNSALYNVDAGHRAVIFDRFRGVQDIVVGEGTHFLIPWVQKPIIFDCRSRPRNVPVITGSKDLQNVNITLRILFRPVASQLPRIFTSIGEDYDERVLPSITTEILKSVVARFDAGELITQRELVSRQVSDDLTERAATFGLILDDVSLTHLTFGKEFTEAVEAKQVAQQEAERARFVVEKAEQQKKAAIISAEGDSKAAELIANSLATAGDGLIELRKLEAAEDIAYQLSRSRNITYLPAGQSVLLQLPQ
Briefly: Binding affinity to PHB1 in human HBL cells using affigel conjugated compound after overnight incubation by pull down assay. Format: cell-based.

Experiment [4] deals with T1, Prohibitin 1 (Homo sapiens). Description: Downregulation of PHB1 in human HBL cells at 0.1 to 10 uM after 24 to 48 hrs by Western blot analysis. The experiment is classed as cell-based.
The target of experiment [5] is Prohibitin-2 (Homo sapiens) (UniProt Q99623). Briefly: Induction of PHB2-mediated melanogenesis in human MM043 cells assessed as pigmentation at 1 to 10 uM after 10 days relative to control. Format: cell-based.
Sequence of Prohibitin-2 (Homo sapiens) (Q99623 whole entry): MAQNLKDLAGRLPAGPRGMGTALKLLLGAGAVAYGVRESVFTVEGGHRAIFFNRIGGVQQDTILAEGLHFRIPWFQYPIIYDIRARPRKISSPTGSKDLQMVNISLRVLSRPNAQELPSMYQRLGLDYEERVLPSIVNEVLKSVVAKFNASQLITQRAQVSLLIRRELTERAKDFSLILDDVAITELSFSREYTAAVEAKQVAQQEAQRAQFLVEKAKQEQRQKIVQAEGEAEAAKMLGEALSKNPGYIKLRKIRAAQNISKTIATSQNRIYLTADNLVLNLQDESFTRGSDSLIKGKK
Experiment [6] shares this target. Briefly: Induction of PHB2-mediated melanogenesis in human MM162 cells assessed as pigmentation at 1 to 10 uM after 10 days relative to control. The experiment is classed as cell-based.
Experiment [7] has the same target. Description: Binding affinity to PHB2 in human HBL cells assessed as upregulation of MITF protein expression at 0.1 to 10 uM after 24 to 48 hrs by Western blot analysis. The experiment is classed as cell-based. In general terms: Immunoblotting shows a protein as a band on a membrane.
Experiment [8] has the same target. Briefly: Binding affinity to PHB2 in human HBL cells assessed as upregulation of tyrosinase protein expression at 0.1 to 10 uM after 24 to 48 hrs by Western blot analysis. Format: cell-based.
Experiment [9] has the same target. Description: Binding affinity to PHB2 in human HBL cells assessed as LC3-2 accumulation after 24 to 48 hrs by Western blot analysis. The experiment is classed as cell-based.
For experiment [10] the target is unchanged. Briefly: Induction of PHB2-mediated melanogenesis in human HBL cells assessed as pigmentation at 10 uM after 10 days in presence of autophagy inhibitor PIK-3. Format: cell-based.
Experiment [11] shares this target. Briefly: Induction of PHB2-mediated melanogenesis in human HBL cells assessed as pigmentation at 10 uM after 10 days in presence of autophagy activator HD1. Format: cell-based.
For experiment [12] the target is unchanged. Briefly: Binding affinity to PHB2 in human HBL cells assessed as upregulation of MITF protein expression at 10 uM after 24 in presence of autophagy inhibitor PIK-3 by Western blot analysis. Format: cell-based.
Experiment [13] has the same target. Briefly: Binding affinity to PHB2 in human HBL cells assessed as upregulation of MITF protein expression at 10 uM after 24 in presence of autophagy activator HD1 by Western blot analysis. Format: cell-based.
Experiment [14] has the same target. Briefly: Binding affinity to PHB2 in human HBL cells assessed as LC3-2 accumulation at 10 uM after 24 in presence of autophagy inhibitor PIK-3 by Western blot analysis. Format: cell-based.
The target is the same in experiment [15]. Briefly: Binding affinity to PHB2 in human HBL cells assessed as LC3-2 accumulation at 10 uM after 24 in presence of autophagy activator HD1 by Western blot analysis. The experiment is classed as cell-based.
Experiment [16] has the same target. Briefly: Binding affinity to PHB2 in human HBL cells assessed as upregulation of ERK phosphorylation at 0.1 to 10 uM after 24 hrs by Western blot analysis. Format: cell-based.
The target is the same in experiment [17]. Briefly: Binding affinity to PHB2 in human HBL cells assessed as feedback mechanism based inhibition of ERK phosphorylation at 0.1 to 10 uM after 48 hrs by Western blot analysis. The experiment is classed as cell-based.
Experiment [18] has the same target. Description: Downregulation of PHB2 in human HBL cells at 0.1 to 10 uM after 24 to 48 hrs by Western blot analysis. Format: cell-based.
The target in experiment [19] is RAC-alpha serine/threonine-protein kinase (Homo sapiens) (UniProt P31749). Briefly: Inhibition of Akt phosphorylation in human HBL cells at 0.1 to 10 uM after 24 to 48 hrs by Western blot analysis. Format: cell-based.
Sequence of RAC-alpha serine/threonine-protein kinase (Homo sapiens) (P31749 whole entry): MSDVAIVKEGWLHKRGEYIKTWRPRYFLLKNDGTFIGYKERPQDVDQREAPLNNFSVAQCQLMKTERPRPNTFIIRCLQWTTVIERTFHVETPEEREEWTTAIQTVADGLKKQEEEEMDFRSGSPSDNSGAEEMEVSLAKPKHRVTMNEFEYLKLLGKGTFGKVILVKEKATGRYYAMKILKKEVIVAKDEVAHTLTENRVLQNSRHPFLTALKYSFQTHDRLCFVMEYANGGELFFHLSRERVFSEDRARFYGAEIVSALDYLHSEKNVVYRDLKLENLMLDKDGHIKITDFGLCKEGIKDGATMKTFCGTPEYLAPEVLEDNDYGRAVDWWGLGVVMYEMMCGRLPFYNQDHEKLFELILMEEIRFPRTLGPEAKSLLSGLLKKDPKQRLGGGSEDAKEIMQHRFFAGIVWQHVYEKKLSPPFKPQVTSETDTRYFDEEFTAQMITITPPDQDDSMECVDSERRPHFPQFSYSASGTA
Experiment [20] has as its target T1, Prohibitin 1 (Homo sapiens). Briefly: Downregulation of PHB1 in human MM043 cells at 0.1 to 10 uM after 24 hrs by Western blot analysis. Format: cell-based.
In experiment [21] the target is Prohibitin-2 (Homo sapiens) (UniProt Q99623). Briefly: Downregulation of PHB2 in human MM043 cells at 0.1 to 10 uM after 24 hrs by Western blot analysis. Format: cell-based.
In experiment [22] the target is RAC-alpha serine/threonine-protein kinase (Homo sapiens) (UniProt P31749). Description: Inhibition of Akt phosphorylation in human MM043 cells at 0.1 to 10 uM after 24 hrs by Western blot analysis. Format: cell-based.
Experiment [23] deals with T1, Prohibitin 1 (Homo sapiens). Description: Downregulation of PHB1 in human MM162 cells at 0.1 to 10 uM after 24 hrs by Western blot analysis. Format: cell-based.
The target of experiment [24] is Prohibitin-2 (Homo sapiens) (UniProt Q99623). Briefly: Downregulation of PHB2 in human MM162 cells at 0.1 to 10 uM after 24 hrs by Western blot analysis. Format: cell-based.
Experiment [25] addresses RAC-alpha serine/threonine-protein kinase (Homo sapiens) (UniProt P31749). Briefly: Inhibition of Akt phosphorylation in human MM162 cells at 0.1 to 10 uM after 24 hrs by Western blot analysis. Format: cell-based.
Experiment [26] concerns HL-60. Briefly: Inhibition of cell proliferation in human HL60 cells after 72 hrs by MTS assay. Format: functional, cell-based. To be noted: HL-60, 72 h. For orientation: Tetrazolium assays rely on reduction of a dye to a coloured formazan, in cell work by metabolically active cells.
Experiment [27] concerns KB. Description: Inhibition of cell proliferation in human KB cells after 72 hrs by MTS assay. The experiment is classed as functional, cell-based.
For experiment [28], the system named is HBL. Description: Induction of apoptosis in human HBL cells at 1 to 10 uM after 48 hrs by Annexin V-PE/7-AAD staining based flow cytometry. Format: functional, cell-based.
Experiment [29] is filed under the species Homo sapiens. Briefly: Induction of apoptosis in human MM043 cells at 1 to 10 uM after 48 hrs by Annexin V-PE/7-AAD staining based flow cytometry. The experiment is classed as functional, cell-based. In general terms: In flow cytometry, cells or beads pass a laser one at a time.
The species named for experiment [30] is Homo sapiens. Description: Induction of apoptosis in human MM162 cells at 1 to 10 uM after 48 hrs by Annexin V-PE/7-AAD staining based flow cytometry. Format: functional, cell-based.
Experiment [31] addresses T1, Prohibitin 1 (Homo sapiens). Description: Downregulation of PHB1 in human HL60 cells at 0.1 to 10 uM after 24 hrs by Western blot analysis. Format: cell-based.
The target in experiment [32] is Prohibitin-2 (Homo sapiens) (UniProt Q99623). Description: Downregulation of PHB2 in human HL60 cells at 0.1 to 10 uM after 24 hrs by Western blot analysis. The experiment is classed as cell-based.
Experiment [33] shares this target. Briefly: Binding affinity to PHB2 in human HL60 cells assessed as LC3-2 accumulation at 0.1 to 10 uM after 24 hrs by Western blot analysis. Format: cell-based.
Experiment [34] shares this target. Briefly: Binding affinity to PHB2 in human HL60 cells assessed as upregulation of ERK phosphorylation at 0.1 uM after 24 hrs by Western blot analysis. The experiment is classed as cell-based.
Experiment [35] addresses RAC-alpha serine/threonine-protein kinase (Homo sapiens) (UniProt P31749). Briefly: Inhibition of Akt phosphorylation in human HL60 cells after 24 to 48 hrs by Western blot analysis. Format: cell-based.

In general, pIC50 refers to the IC50 on a negative log10 scale, so that one unit is a factor of ten. Read a high pIC50 as a small IC50.

For the compound `Fc1c(F)c(F)c(Oc2nc(N3CCC(N4CCCCC4)CC3)nc(N3CCCc4ccccc4C3)n2)c(F)c1F`, the fold change (FC) in experiment [1] came to 0.87; in experiment [2], 1.79. Besides, the result in experiment [3] was Active.

Consider `Fc1cccc(CNc2nc(Oc3c(F)c(F)c(F)c(F)c3F)nc(N3CCC(N4CCCCC4)CC3)n2)c1`, for which the outcome in [4], in experiment [5], in experiment [6], in [7], in experiment [8] and in experiment [11] was Active. Also, the result in experiment [13], in experiment [15], in experiment [16], in experiment [18], in [20] and in [21] was Active. Further, the outcome in experiment [23], in experiment [24], in experiment [28], in [29], in [30] and in [31] was Active. For the same compound, the outcome in experiment [32], in [33] and in [34] was Active. Moreover, the fold change (FC) in experiment [1] came out at 1.15; in experiment [2] it was 2.01. Further, the Activity entry in [9] was “Dose-dependent effect”. Also, the result in experiment [10], in experiment [12] and in [14] was inactive. In addition, the inhibition entry in experiment [17], in experiment [19], in experiment [22] and in [25] was “Active” throughout. The results for the negative-log IC50 (pIC50) in [26] and in experiment [27] were 4.60 and 4.34, respectively. Besides, the inhibition result in [35] is “Dose-dependent effect”.
